Literature values, collected in patent US7348294B2, “Adsorbent and method for adsorbing cardiac glycoside” (Kaneka Corporation, priority 2000, dated 2008).

Conditions: octanol-water; ligand before immobilization

CCCCN [n-butylamine]
log P: 0.97
